In brackets after ≈: the same amount, converted by molar mass.
Legend:
[1] = tested on: skin wounds infected by Streptococcus and Staphylococcus; test: Treatment of infected wounds, human volunteers; type: in vivo; conditions: 0.1% ointment for 3 days
Description: Human volunteers suffering from skin wounds infected by Streptococcus and Staphylococcus were treated with 0.1% Compounds (1) and (2) in an ointment base of vaseline, sheep fat, and sulfoxide.

[2] = tested on: Corynebacterium paratuberculosis; test: Anti-bacterial activity in vivo, infected mice
Description: The therapeutic and prophylactic effect of the substances was determined in experiments in vivo on mice, infected intraperitoneally or intranasally with Corynebacterium paratuberculosis.

Salmonella intranasally = test: Anti-bacterial activity in vivo, infected mice; conditions: schedule +2, +3; 200 mg/kg intramuscularly
Candida albicans = test: M38-P microdilution MIC/MFC; type: cell-based; conditions: Table 16, 24 h, 35° C.
Aspergillus fumigatus = test: M38-P microdilution MIC/MFC; type: cell-based; conditions: Table 16, 48 h, 35° C.
Phialophora verrucosa = test: M38-P microdilution MIC/MFC; type: cell-based; conditions: Table 16, Dematiaceous fungi
Rhizomucor pusillus = test: M38-P microdilution MIC/MFC; type: cell-based; conditions: Table 16, 48 h, 35° C.
[3] = tested on: C. guillermondii RMIT 176; test: M38-P microdilution MIC/MFC; type: cell-based; conditions: Table 16, 24 h, 35° C.
C. parapsilosis RMIT 178 = test: M38-P microdilution MIC/MFC; type: cell-based; conditions: Table 16, 24 h, 35° C.
Fusarium graminearum = test: microbe, parasite or virus in culture; type: cell-based; conditions: Table 16; M38-P; 48 h, 35° C.
Pseudoallescheria boydii = test: M38-P microdilution MIC/MFC; type: cell-based; conditions: Table 16, Dematiaceous fungi
A. Niger = test: M38-P microdilution MIC/MFC; type: cell-based; conditions: Table 16, 48 h, 35° C.
C. glabrate RMIT 157 = test: M38-P microdilution MIC/MFC; type: cell-based; conditions: Table 16, 24 h, 35° C.
Paecilomyces variotii = test: M38-P microdilution MIC/MFC; type: cell-based; conditions: Table 16, 48 h, 35° C.
Fonsecaea pedrosoi = test: M38-P microdilution MIC/MFC; type: cell-based; conditions: Table 16, Dematiaceous fungi
Rhizopus stoloniefer = test: M38-P microdilution MIC/MFC; type: cell-based; conditions: Table 16, 48 h, 35° C.
R. oryzae = test: M38-P microdilution MIC/MFC; type: cell-based; conditions: Table 16, 48 h, 35° C.
F. chlamydosporum = test: M38-P microdilution MIC/MFC; type: cell-based; conditions: Table 16, 48 h, 35° C.
Cryptococcus neoformans = test: M38-P microdilution MIC/MFC; type: cell-based; conditions: Table 16, 24 h, 35° C.
C. krusei RMIT 177 = test: M38-P microdilution MIC/MFC; type: cell-based; conditions: Table 16, 24 h, 35° C.
C. tropicalis RMIT 181 = test: M38-P microdilution MIC/MFC; type: cell-based; conditions: Table 16, 24 h, 35° C.
A. Flavus = test: M38-P microdilution MIC/MFC; type: cell-based; conditions: Table 16, 48 h, 35° C.

SMILES: O=[N+]([O-])/C=C/c1ccc2c(c1)OCO2 [Compound (2), 3,4-methylenedioxy-β-nitrostyrene]
- solubility in organic solvents (Solubility): soluble in acetone, alcohol, acetic acid and in a majority of organic solvents
- solubility in water (Solubility): non-soluble in water
- clearing of infected wound [1]: cleared the wound completely of pus
- therapeutic and prophylactic activity [2]: showed therapeutic and prophylactic activity
- Cumulative mortality (test) (Salmonella intranasally): 15
- Incubation period days (test) (Salmonella intranasally): 1 days

SMILES: C[C@@H]1[C@H](O)[C@@H](C)/C=C/C=C/C=C/C=C/C=C/C=C/C=C/[C@H](O[C@@H]2O[C@H](C)[C@@H](O)[C@H](N)[C@@H]2O)C[C@@H]2O[C@](O)(C[C@@H](O)C[C@@H](O)[C@H](O)CC[C@@H](O)C[C@@H](O)CC(=O)O[C@H]1C)C[C@H](O)[C@H]2C(=O)O [Amphotericin B]
- MIC (Candida albicans): 0.251 µg/mL (≈ 0.272 µM)
- MMC (Candida albicans): 0.25 µg/mL
- MMC (Aspergillus fumigatus): 8 µg/mL
- MIC (Phialophora verrucosa): 2 µg/mL (≈ 2.16 µM)
- MMC (Phialophora verrucosa): 4 µg/mL
- MIC (Rhizomucor pusillus): 1 µg/mL (≈ 1.08 µM)
- MMC (Rhizomucor pusillus): 1 µg/mL
- MIC [3]: 0.03 µg/mL (≈ 0.0325 µM)
- MMC [3]: 0.06 µg/mL
- MIC (C. parapsilosis RMIT 178): 0.253 µg/mL (≈ 0.274 µM)
- MMC (C. parapsilosis RMIT 178): 0.25 µg/mL
- MIC (Fusarium graminearum): 4 µg/mL (≈ 4.33 µM)
- MMC (Fusarium graminearum): 8 µg/mL
- MIC (Pseudoallescheria boydii): 4 µg/mL (≈ 4.33 µM)
- MMC (Pseudoallescheria boydii): 16 µg/mL
- MIC (A. Niger): 2 µg/mL (≈ 2.16 µM)
- MMC (A. Niger): 2 µg/mL
- MIC (C. glabrate RMIT 157): 0.5 µg/mL (≈ 0.541 µM)
- MMC (C. glabrate RMIT 157): 1 µg/mL
- MIC (Paecilomyces variotii): 1 µg/mL (≈ 1.08 µM)
- MMC (Paecilomyces variotii): 1 µg/mL
- MIC (Fonsecaea pedrosoi): 8 µg/mL (≈ 8.66 µM)
- MMC (Fonsecaea pedrosoi): 16 µg/mL
- MIC (Rhizopus stoloniefer): >16 µg/mL
- MIC (R. oryzae): 4 µg/mL (≈ 4.33 µM)
- MMC (R. oryzae): 4 µg/mL
- MIC (F. chlamydosporum): 2 µg/mL (≈ 2.16 µM)
- MMC (F. chlamydosporum): 2 µg/mL
- MIC (Cryptococcus neoformans): 0.5 µg/mL (≈ 0.541 µM)
- MIC (C. krusei RMIT 177): 0.52 µg/mL (≈ 0.563 µM)
- MMC (C. krusei RMIT 177): 0.5 µg/mL
- MIC (C. tropicalis RMIT 181): 0.25 µg/mL (≈ 0.271 µM)
- MMC (C. tropicalis RMIT 181): 0.5 µg/mL
- MIC (A. Flavus): 8 µg/mL (≈ 8.66 µM)
- MMC (A. Flavus): 8 µg/mL
